System: adult beagle dogs
Experiment: Metformin-induced retrograde giant contractions (RGCs) and vomiting in beagle dogs, with or without intravenous ondansetron
Assay type: in vivo, dog
Method: Contractions of the smooth muscle of the gastrointestinal tracts of the dogs were monitored with strain gauge force transducers to permit detection of retrograde giant contractions (RGCs). The times at which either RGCs or vomiting occurred were recorded. Vomiting is always preceded by RGCs, while RGCs may also occur without vomiting and are generally thought to be an indication of nausea.

Cc1nccn1CC1CCc2c(c3ccccc3n2C)C1=O (stereo not shown) [Ondansetron, 1,2,3 ,9-Tetrahydro-9-methyl-3-[(2-methyl1-H-imidazole-1-yl)methyl]-4H-carbazol-4-one] was tested, and the “Time at which one RGC and vomit occurred after metformin administration” value (Dog A, Test 2, ondansetron 0.15 mg/kg i.v. 15 min before metformin 25 mg/kg) was 179 minutes after metformin, the “Observations (RGCs, vomiting)” value (Dog A, Test 3, ondansetron 0.15 mg/kg i.v. 15 min before metformin 25 mg/kg) was “no RGCs or vomiting occurred” and the “Observations (RGCs, vomiting)” value (Dog B, Tests 3 and 4, ondansetron 0.15 mg/kg i.v. 15 min before metformin 50 mg/kg) was “no RGCs or vomiting occurred”. For the same compound, the “Suppression of the emetic effects of a metformin dosage” value (overall conclusion from the dog tests) was “effective in suppressing the emetic effects”.

Reference: patent US6451808B1 (DepoMed, Inc., priority 2000, dated 2002)
